Experimental data from ChEMBL document CHEMBL1201862, “PubChem BioAssay data set” (2004).
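Five concentrations, 48 hours, 96-well plates. GI50 is the concentration that inhibits growth by half.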 The source made the active and inactive calls. Cut-off read from the data, not from the text of the source: active = GI50 up to about 1.1 µM and inactive = higher.

Key:
Test in all cases: growth of human tumour cells (NCI), 48 h
HCT-116 = tested on: HCT-116
SK-MEL-28 = tested on: SK-MEL-28
SW-620 = tested on: SW-620
HOP-92 = tested on: HOP-92
MCF7 = tested on: MCF7
NCI/ADR-RES = tested on: NCI/ADR-RES
OVCAR-4 = tested on: OVCAR-4
SF-539 = tested on: SF-539
T47D = tested on: T47D
MDA-MB-435 = tested on: MDA-MB-435
SF-268 = tested on: SF-268
SK-MEL-2 = tested on: SK-MEL-2
SR = tested on: SR
RPMI-8226 = tested on: RPMI-8226
TK-10 = tested on: TK-10
BT-549 = tested on: BT-549
SNB-75 = tested on: SNB-75
MOLT-4 = tested on: MOLT-4
CAKI-1 = tested on: CAKI-1
SN12C = tested on: SN12C

SMILES	GI50 (HCT-116)	GI50 (SK-MEL-28)	GI50 (SW-620)	GI50 (HOP-92)	GI50 (MCF7)	GI50 (NCI/ADR-RES)	GI50 (OVCAR-4)	GI50 (SF-539)	GI50 (T47D)	GI50 (MDA-MB-435)	GI50 (SF-268)	GI50 (SK-MEL-2)	GI50 (SR)	GI50 (RPMI-8226)	GI50 (TK-10)	GI50 (BT-549)	GI50 (SNB-75)	GI50 (MOLT-4)	GI50 (CAKI-1)	GI50 (SN12C)
O=P1(N(CCCl)CCCl)Oc2ccc(Cl)cc2Sc2c(ccc(Cl)c2Cl)O1 (stereo not drawn)	4.97 µM (inactive)	11.5 µM (inactive)	6.68 µM (inactive)	4.42 µM (inactive)	6.38 µM (inactive)	6.04 µM (inactive)	23.9 µM (inactive)	23.3 µM (inactive)	8.38 µM (inactive)	7.1 µM (inactive)	92.9 µM (inactive)	9.68 µM (inactive)	2.99 µM (inactive)	5.02 µM (inactive)	9.18 µM (inactive)	29.1 µM (inactive)	18.8 µM (inactive)	3.96 µM (inactive)	15.2 µM (inactive)	11.9 µM (inactive)
c1ccc2c(c1)CN1CCCC1CN2 (stereo not drawn)	> 100 µM (inactive)	> 100 µM (inactive)	> 100 µM (inactive)	> 100 µM (inactive)	> 100 µM (inactive)	> 100 µM (inactive)	> 100 µM (inactive)	> 100 µM (inactive)	> 100 µM (inactive)	> 100 µM (inactive)	> 100 µM (inactive)	> 100 µM (inactive)	> 100 µM (inactive)	> 100 µM (inactive)	> 100 µM (inactive)	> 100 µM (inactive)	> 100 µM (inactive)	> 100 µM (inactive)	> 100 µM (inactive)	> 100 µM (inactive)
O=P(NC12CC3CC(CC(C3)C1)C2)(N1CC1)N1CC1	43.7 µM (inactive)	> 100 µM (inactive)	> 86.5 µM (inactive)	18.5 µM (inactive)	9.71 µM (inactive)	53 µM (inactive)	> 100 µM (inactive)	15.9 µM (inactive)	94.8 µM (inactive)	> 100 µM (inactive)	12.3 µM (inactive)	> 100 µM (inactive)	2.05 µM (inactive)	> 66.1 µM (inactive)	> 100 µM (inactive)	> 100 µM (inactive)	22.4 µM (inactive)	3.3 µM (inactive)	1.82 µM (inactive)	10.5 µM (inactive)
OCCn1cnc2c(SCc3ccccc3)ncnc21	48.8 µM (inactive)	> 100 µM (inactive)	> 100 µM (inactive)	> 100 µM (inactive)	> 100 µM (inactive)	> 100 µM (inactive)	> 100 µM (inactive)	87.5 µM (inactive)	> 100 µM (inactive)	> 100 µM (inactive)	71.8 µM (inactive)	> 100 µM (inactive)	19.5 µM (inactive)	97.5 µM (inactive)	> 100 µM (inactive)	95.7 µM (inactive)	> 100 µM (inactive)	–	> 100 µM (inactive)	> 100 µM (inactive)
Cc1ccc(C2CC(=O)CC(c3ccc(C)cc3)C23C(=O)NC(=O)NC3=O)cc1 (stereo not drawn)	> 100 µM (inactive)	> 100 µM (inactive)	> 100 µM (inactive)	> 100 µM (inactive)	> 100 µM (inactive)	> 100 µM (inactive)	71.1 µM (inactive)	> 100 µM (inactive)	> 100 µM (inactive)	> 100 µM (inactive)	> 100 µM (inactive)	> 100 µM (inactive)	60.1 µM (inactive)	> 100 µM (inactive)	> 100 µM (inactive)	> 100 µM (inactive)	> 100 µM (inactive)	45 µM (inactive)	> 100 µM (inactive)	> 100 µM (inactive)
COc1cc(C(=O)Oc2ccc3c(c2)OCO3)cc(OC)c1OC	–	> 100 µM (inactive)	> 100 µM (inactive)	> 100 µM (inactive)	> 100 µM (inactive)	> 100 µM (inactive)	> 100 µM (inactive)	> 100 µM (inactive)	> 100 µM (inactive)	> 100 µM (inactive)	> 100 µM (inactive)	> 100 µM (inactive)	> 100 µM (inactive)	> 100 µM (inactive)	> 100 µM (inactive)	> 100 µM (inactive)	> 100 µM (inactive)	> 100 µM (inactive)	> 100 µM (inactive)	> 100 µM (inactive)
CCc1nc(N)nc(N)c1-c1ccc2nn(-c3ccccc3)[n+]([O-])c2c1	0.396 µM (active)	11.8 µM (inactive)	0.869 µM (active)	8.91 µM (inactive)	4.17 µM (inactive)	3.13 µM (inactive)	11.9 µM (inactive)	3.7 µM (inactive)	13.1 µM (inactive)	1.27 µM (inactive)	5.12 µM (inactive)	14.3 µM (inactive)	1.35 µM (inactive)	8.24 µM (inactive)	15 µM (inactive)	11.9 µM (inactive)	21.3 µM (inactive)	2.84 µM (inactive)	4.47 µM (inactive)	9.38 µM (inactive)
